# In patent US4150139A, “Triazolobenzazepine derivatives” (Takeda Chemical Industries, Ltd., priority 1976, dated 1979):
# Tested on: mice
# Assay: Analgesic Effect [mice, acetic acid-writhing method]
# Type: in vivo
# Conditions: Mus musculus, po, P.O. (per os), 95% C.L. in parentheses
# Excerpt: The analgesic effects of some representative compounds (I) are set forth below in Table I.
# [mice, acetic acid-writhing method]
row,Structure (SMILES),ED50 [mg/kg]
1,"CSc1nnc2n1C=Cc1ccccc1C2 [(I')Z = SCH3, 3-methylthio-11H-s-triazolo[3,4-b][3]benzazepine]",10.5
2,"C[S+]([O-])c1nnc2n1C=Cc1ccccc1C2 (centres unmarked) [(I')Z = SOCH3, 3-methylsulfinyl-11H-s-triazolo[3,4-b][3]benzazepine]",10.3
